Target: T1, autotaxin (ATX) (Homo sapiens, UniProt Q13822)
T1 construct: gene ENPP2
Test: biochemical
Design: FS-3 fluorogenic substrate hydrolysis by purified recombinant human ATX, fluorescence read-out
Experimental: The purification of recombinant human ATX was carried out as reported earlier. The potential inhibitory effect of the hits identified through molecular modeling was assessed using the FS-3 assay, which measures fluorescence when the non-natural lipid-like FRET-established substance FS-3 (Echelon Biosciences, Salt Lake City, UT, USA) is hydrolyzed by ATX. A 60 μL volume of reaction mixture containing ATX assay buffer (pH 8.0, containing 10 μM BSA, 50 mM TRIS, […], 5 mM KCl, 1 mM CaCl2, and 1 mM MgCl2) was added to each well of a black-wall 96-well plate. Recombinant ATX was then added to achieve a final concentration of 4 nM. The compounds were dissolved in DMSO and transferred to a 96-well plate in technical triplicate. Single-dose testing was performed with a final well concentration of 10 μM, while dose–response assays involved eight different concentrations of the test compound. FS-3 was then added to achieve a concluding well strength of 1 μM, and fluorescence was quantified on a CLARIOstar Plus plate reader (BMG Labtech, Ortenberg, Baden-Württemberg, Germany) for two hours, with scans every two minutes at excitation/emission wavelengths of 485/528 nm. Percent activity was calculated relative to DMSO-treated control wells. […] Inhibition tests were conducted to target ATX-facilitated hydrolysis of FS3 (LPC homolog) using 15 compounds at 10 μM. Compounds inhibiting more than 50% of FS-3 hydrolysis were classified as hits. […] BMP-22, a known ATX inhibitor, served as a control with an IC50 of 0.2 ± 0.0 μM, consistent with reported values.

Compound | inhibition at 10 µM
COc1ccc(NC(=O)CSc2nc(=O)c3c(C)cc(C)nc3n2-c2cccc(C)c2C)cc1 [MolPort-072] | 42%
Cc1cc(C)cc(-n2c(CN3CCN(C(=O)Nc4ccccc4F)CC3)nc3cccnc32)c1 [MolPort-904] | 29.7%
COc1cc(C=C2N=C(c3ccc(F)cc3)OC2=O)cc(I)c1OCc1cccc(C)c1 [MolPort-839] | 10.8%
Cc1cccc(NC(=O)Cn2nc3c(Oc4ccccc4C)nc4ccccc4n3c2=O)c1 [MolPort-161] | 5.16%
Cc1cc(NC(=O)Cn2nc3c(Oc4ccccc4C)nc4ccccc4n3c2=O)ccc1Br [MolPort-311] | 5.23%
Cc1ccc(NC(=O)Cn2nc3c(Oc4cccc(C)c4C)nc4ccccc4n3c2=O)cc1C [MolPort-240] | 2.06%
CCc1cccc(NC(=O)Cn2nc3c(Oc4ccccc4C)nc4ccccc4n3c2=O)c1 [MolPort-674] | 7.1%
Cc1cc(-n2c(SCC(=O)Nc3ccc(F)c(F)c3)nc3n[nH]c(C)c3c2=N)ccc1Cl [MolPort-323] | 5%

Other lines, results leading:

inhibition at 10 µM | Compound
-13.5% | Cc1cccc(-n2c(SCC(=O)Nc3ccc(C)c(C)c3)nc3[nH]nc(C)c3c2=N)c1 [MolPort-144]
27.2% | Cc1ccccc1NC(=O)c1nnn(Cc2nc(-c3cccc(Cl)c3)oc2C)c1C [MolPort-495]
15.5% | Cc1ccc(-c2noc(-c3nnn(Cc4nc(-c5ccccc5)oc4C)c3C)n2)cc1C [MolPort-122]
26.4% | Cc1cc(C)cc(NC(=O)Cn2c(=O)nc(N3CCCC(C)C3)c3ccccc32)c1 (centres unmarked) [MolPort-616]
7.61% | Cc1cccc(CNC(=O)c2c(O)c3cccnc3n(-c3cccc(F)c3)c2=O)c1 [MolPort-914]
75.9% | Cc1cc(F)ccc1NC(=O)c1cnn2c(=O)c3c(n(C)c12)CCN(Cc1ccccc1)C3 [MolPort-137]
33.7% | COc1ccccc1-c1nc(Cn2nnc(-c3nc(-c4ccc(C)cc4)no3)c2C)c(C)o1 [MolPort-185]

Target: T1, autotaxin (ATX)
Test: FS-3 fluorogenic substrate hydrolysis assay with […] purified recombinant human ATX
Type: biochemical

IC50 | Compound
200 nM | CCCCCCCCCCCCCCCc1ccc(CP(=O)(O)O)cc1 [BMP-22, reference compound]
1600 ± 200 nM | MolPort-137
